Measurements: US12545673B2, “Imidazopyridine derivative and pharmaceutical composition comprising same as active ingredient” (TSD LIFE SCIENCES CO., LTD., priority 2019, dated 2026)
Where two headings read alike, the source gives them in different places.

Key:
[1] = system: acute lymphoblastic leukemia cell line Jurkat; experiment: Cancer cell proliferation inhibitory activity evaluation 2 (CCK-8), Jurkat; type: cell-based; details: Homo sapiens
[2] = system: gastric cancer cell line AGS; experiment: Cancer cell proliferation inhibitory activity evaluation 2 (CCK-8), AGS; type: cell-based; details: Homo sapiens, read-out: Cancer cell proliferation inhibitory activity AGS
[3] = system: colorectal cancer cell line HT-29; experiment: Cancer cell proliferation inhibitory activity evaluation 1 (CCK-8), HT-29; type: cell-based; details: Homo sapiens, read-out: Cancer cell proliferation inhibitory activity HT29
Procedure: (§1) In order to identify whether the compound has anticancer activity, the human breast cancer cell line MDA-MB-231, the colorectal cancer cell line HT-29, the acute myeloid leukemia cell line U937, and the chronic myeloid leukemia cell line K562 were used. The cell line was cultured using RPMI-1640 medium containing 10% fetal bovine serum. Welgene products were used as the medium, and hyclone products were used for fetal bovine serum, and 1% of antibiotics for cell culture from Gibco were used as the culture medium.

[4] = system: chronic myeloid leukemia cell line K562; experiment: Cancer cell proliferation inhibitory activity evaluation 1 (CCK-8), K562; type: cell-based; details: Homo sapiens, read-out: Cancer cell proliferation inhibitory activity K562
Procedure: as §1

[5] = system: human breast cancer cell line MDA-MB-231; experiment: Cancer cell proliferation inhibitory activity evaluation 1 (CCK-8), MDA-MB-231; type: cell-based
Procedure: as §1

[6] = system: acute myeloid leukemia cell line U937; experiment: Cancer cell proliferation inhibitory activity evaluation 2 (CCK-8), U937; type: cell-based; details: Homo sapiens, read-out: Cancer cell proliferation inhibitory activity U937
[7] = system: acute myeloid leukemia cell line U937; experiment: Cancer cell proliferation inhibitory activity evaluation 1 (CCK-8), U937; type: cell-based; details: Homo sapiens, read-out: Cancer cell proliferation inhibitory activity U937
Procedure: as §1

[8] = biological target: MLK3 (Homo sapiens (Human), UniProt Q16584); experiment: Evaluation of inhibitory activity of enzyme units, MLK3 ([γ-33P]-ATP filter assay)
[9] = system: gastric cancer cell line Hs746T; experiment: Cancer cell proliferation inhibitory activity evaluation 2 (CCK-8), Hs746T; type: cell-based; details: Homo sapiens
Procedure: (§2) In order to identify whether the compounds have anticancer activity, the acute myeloid leukemia cell line U937, the acute lymphoblastic leukemia cell line Jurkat, the gastric cancer cell lines AGS, […], and the human lung cancer cell line A549 were used. The cell line was cultured using RPMI-1640 medium (U937, Jurkat, AGS, A549) or DMEM (Hs746T) medium containing 10% fetal bovine serum. Welgene products were used as the medium, and hyclone products were used for fetal bovine serum, and 1% of antibiotics for cell culture from Gibco were used as the culture medium.

[10] = biological target: MLK1 (Homo sapiens (Human), UniProt P80192); experiment: Evaluation of inhibitory activity of enzyme units, MLK1 ([γ-33P]-ATP filter assay); type: biochemical
[11] = biological target: LRRK2 wild-type (Homo sapiens (Human), UniProt Q5S007); experiment: Evaluation of inhibitory activity against LRRK2 (affinity bead competition binding), wild-type; details: read-out: Residual active values (%) LRRK2; for remaining binding at 0.1 µM: 100 nM; for remaining binding at 0.5 µM: 500 nM
Procedure: (§3) In order to identify the activity inhibitory effect on the LRRK2 wild-type and LRRK2 mutant (G2019S) kinase of the example compound according to the present disclosure, BL21-derived E. coli bacteria (E. coli) were cultured in a 24-well plate until the growth phase (log phase). After culturing, T7 phage tagged with LRRK2 wild-type or LRRK2 mutant (G2019S) was used to infect the multiplicity of infection (MOI) at 0.4. Thereafter, the E. coli bacteria were stirred at 32° C. for 90 to 150 minutes to allow dissolution. The lysate of E. coli bacteria was centrifuged (6,000×g) and filtered (0.2 μm), and the obtained tagged T7 phage […] a DNA-tagged kinase protein (LRRK2 or LRRK2 G2019S) was obtained.
(§4) After blocking the biotinylated ligand with extra biotin, it is washed with Pierce's buffer, SeaBlock (1% BSA, 0.05% Tween 20, 1 mM DTT) to remove unbound ligand and reduce non-specific binding.
(§5) The compound was prepared at a concentration of 40× in 100% DMSO and used after dilution, and all binding reactions were performed in a final volume of 0.02 ml in a 384-well plate.
(§6) The activity inhibitory effect on the LRRK2 wild-type and LRRK2 mutant (G2019S) kinases of the example compounds according to the present disclosure was measured and shown in Table 10 below.

[12] = biological target: LRRK2 mutant (G2019S) (Homo sapiens (Human), UniProt Q5S007, G2019S); experiment: Evaluation of inhibitory activity against LRRK2 (affinity bead competition binding), G2019S mutant; details: read-out: Residual active values (%) LRRK2(G2019S); for remaining binding at 0.1 µM: 100 nM; for remaining binding at 0.5 µM: 500 nM
Procedure: as §3, §4, §5, §6

[13] = system: human lung cancer cell line A549; experiment: Cancer cell proliferation inhibitory activity evaluation 2 (CCK-8), A549; type: cell-based
Procedure: as §2

[14] = 10 μM, 72 hours, CCK-8, read-out: Cancer cell proliferation inhibitory activity Jurkat
[15] = MDA-MB-231, 10 μM, 72 hours, CCK-8, read-out: Cancer cell proliferation inhibitory activity MDAMB231
[16] = U-937, 10 μM, 72 hours, CCK-8 (Table 3)
[17] = U-937, 10 μM, 72 hours, CCK-8 (Table 2)
[18] = 72 h, read-out: Cancer cell proliferation inhibitory activity Jurkat
[19] = 10 μM, 72 hours, CCK-8, read-out: Cancer cell proliferation inhibitory activity Hs746T
[20] = A549, 10 μM, 72 hours, CCK-8, read-out: Cancer cell proliferation inhibitory activity A549
[21] = 72 h, read-out: Cancer cell proliferation inhibitory activity Hs746T
[22] = A549, 72 h, read-out: Cancer cell proliferation inhibitory activity A549

Chain of LRRK2 wild-type (Q5S007 whole entry, looked up): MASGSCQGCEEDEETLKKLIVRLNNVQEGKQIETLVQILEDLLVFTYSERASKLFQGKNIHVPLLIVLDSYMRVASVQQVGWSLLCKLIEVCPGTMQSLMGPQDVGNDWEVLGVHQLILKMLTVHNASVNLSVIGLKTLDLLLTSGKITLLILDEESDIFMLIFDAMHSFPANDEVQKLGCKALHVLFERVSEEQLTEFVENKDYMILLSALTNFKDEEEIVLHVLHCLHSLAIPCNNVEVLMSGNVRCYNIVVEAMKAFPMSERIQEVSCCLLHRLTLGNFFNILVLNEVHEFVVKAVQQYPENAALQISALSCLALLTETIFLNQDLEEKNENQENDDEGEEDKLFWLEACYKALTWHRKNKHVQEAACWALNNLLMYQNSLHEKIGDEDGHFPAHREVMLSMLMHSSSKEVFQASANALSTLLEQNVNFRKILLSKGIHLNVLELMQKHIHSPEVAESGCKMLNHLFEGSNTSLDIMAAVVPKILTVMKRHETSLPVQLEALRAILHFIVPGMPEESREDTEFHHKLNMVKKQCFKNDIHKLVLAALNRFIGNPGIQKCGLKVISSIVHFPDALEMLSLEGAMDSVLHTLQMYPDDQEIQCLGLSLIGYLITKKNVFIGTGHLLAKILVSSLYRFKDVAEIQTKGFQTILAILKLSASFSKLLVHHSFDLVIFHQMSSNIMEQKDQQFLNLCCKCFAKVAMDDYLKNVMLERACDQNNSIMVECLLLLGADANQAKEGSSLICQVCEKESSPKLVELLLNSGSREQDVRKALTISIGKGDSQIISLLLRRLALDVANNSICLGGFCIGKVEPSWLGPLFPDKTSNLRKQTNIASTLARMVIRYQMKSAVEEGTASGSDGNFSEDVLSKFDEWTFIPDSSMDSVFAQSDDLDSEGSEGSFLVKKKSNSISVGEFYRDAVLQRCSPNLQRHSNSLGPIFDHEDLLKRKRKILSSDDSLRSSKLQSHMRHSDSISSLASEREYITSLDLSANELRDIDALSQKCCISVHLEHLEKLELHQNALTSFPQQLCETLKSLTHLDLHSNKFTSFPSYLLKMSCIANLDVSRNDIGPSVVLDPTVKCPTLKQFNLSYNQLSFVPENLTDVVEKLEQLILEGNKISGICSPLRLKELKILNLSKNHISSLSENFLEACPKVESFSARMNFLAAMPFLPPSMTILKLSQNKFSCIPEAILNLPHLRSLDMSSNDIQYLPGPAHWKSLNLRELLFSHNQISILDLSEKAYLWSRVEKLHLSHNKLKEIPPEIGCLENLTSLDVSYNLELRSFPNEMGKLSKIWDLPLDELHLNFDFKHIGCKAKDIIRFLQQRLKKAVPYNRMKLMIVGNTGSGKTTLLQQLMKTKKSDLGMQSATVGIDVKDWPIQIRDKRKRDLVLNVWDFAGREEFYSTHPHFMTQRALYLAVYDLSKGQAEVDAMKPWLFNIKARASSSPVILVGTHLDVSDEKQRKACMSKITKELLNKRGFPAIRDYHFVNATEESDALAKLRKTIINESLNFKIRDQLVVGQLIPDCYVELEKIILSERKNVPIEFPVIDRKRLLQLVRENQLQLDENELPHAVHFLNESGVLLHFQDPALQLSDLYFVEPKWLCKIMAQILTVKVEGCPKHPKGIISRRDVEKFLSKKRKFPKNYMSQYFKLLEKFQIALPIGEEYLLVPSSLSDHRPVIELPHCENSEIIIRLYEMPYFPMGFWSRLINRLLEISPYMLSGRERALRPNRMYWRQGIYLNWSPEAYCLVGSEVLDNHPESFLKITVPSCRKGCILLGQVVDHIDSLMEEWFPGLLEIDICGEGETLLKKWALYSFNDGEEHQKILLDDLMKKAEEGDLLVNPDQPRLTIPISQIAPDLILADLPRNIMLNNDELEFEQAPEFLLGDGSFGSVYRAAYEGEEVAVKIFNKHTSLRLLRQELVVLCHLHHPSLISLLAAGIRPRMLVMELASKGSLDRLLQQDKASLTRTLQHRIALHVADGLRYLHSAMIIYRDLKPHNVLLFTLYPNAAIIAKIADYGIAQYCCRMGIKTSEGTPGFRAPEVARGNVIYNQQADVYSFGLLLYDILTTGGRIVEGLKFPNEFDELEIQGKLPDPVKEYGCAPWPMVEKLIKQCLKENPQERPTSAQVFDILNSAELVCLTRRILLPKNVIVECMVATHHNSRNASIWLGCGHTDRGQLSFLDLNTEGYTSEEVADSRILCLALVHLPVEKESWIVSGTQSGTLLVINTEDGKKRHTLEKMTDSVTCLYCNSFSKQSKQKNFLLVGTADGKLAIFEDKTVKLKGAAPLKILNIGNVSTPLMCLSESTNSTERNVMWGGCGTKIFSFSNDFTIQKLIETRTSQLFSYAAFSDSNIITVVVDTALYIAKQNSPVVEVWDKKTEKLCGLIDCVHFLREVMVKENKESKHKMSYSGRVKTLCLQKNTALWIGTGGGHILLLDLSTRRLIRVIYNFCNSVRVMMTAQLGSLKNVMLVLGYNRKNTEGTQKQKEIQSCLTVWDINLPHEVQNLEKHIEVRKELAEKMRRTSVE
Chain of MLK1 (P80192 whole entry, looked up): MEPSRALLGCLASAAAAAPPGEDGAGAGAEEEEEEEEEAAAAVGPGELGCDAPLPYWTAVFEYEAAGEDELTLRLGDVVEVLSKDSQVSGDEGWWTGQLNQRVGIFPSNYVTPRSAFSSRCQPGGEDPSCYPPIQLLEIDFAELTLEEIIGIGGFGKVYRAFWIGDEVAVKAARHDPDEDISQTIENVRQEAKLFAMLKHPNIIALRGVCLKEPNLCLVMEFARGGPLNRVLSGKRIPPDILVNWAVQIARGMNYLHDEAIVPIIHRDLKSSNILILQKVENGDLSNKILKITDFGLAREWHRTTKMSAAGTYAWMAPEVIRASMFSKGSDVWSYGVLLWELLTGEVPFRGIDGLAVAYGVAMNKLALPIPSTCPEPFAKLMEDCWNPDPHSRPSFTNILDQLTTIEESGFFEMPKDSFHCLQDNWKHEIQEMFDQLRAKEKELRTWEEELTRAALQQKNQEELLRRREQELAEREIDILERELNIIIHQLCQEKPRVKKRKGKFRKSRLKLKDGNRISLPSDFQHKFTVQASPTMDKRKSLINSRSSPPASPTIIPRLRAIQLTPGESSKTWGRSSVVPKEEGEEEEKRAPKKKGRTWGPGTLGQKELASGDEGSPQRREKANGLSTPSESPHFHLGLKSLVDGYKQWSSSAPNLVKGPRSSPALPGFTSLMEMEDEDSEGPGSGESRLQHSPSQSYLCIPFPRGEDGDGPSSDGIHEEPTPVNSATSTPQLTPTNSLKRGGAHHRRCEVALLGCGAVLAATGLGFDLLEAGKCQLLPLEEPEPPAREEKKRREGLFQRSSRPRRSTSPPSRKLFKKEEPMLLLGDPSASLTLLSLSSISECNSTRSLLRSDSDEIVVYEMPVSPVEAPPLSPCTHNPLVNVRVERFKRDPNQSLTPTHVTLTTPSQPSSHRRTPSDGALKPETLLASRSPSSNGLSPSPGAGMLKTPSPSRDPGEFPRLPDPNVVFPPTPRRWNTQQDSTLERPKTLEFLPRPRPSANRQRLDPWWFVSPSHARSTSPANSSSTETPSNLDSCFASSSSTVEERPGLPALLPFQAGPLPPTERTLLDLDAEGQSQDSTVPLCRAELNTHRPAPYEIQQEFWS
Chain of MLK3 (Q16584 whole entry, looked up): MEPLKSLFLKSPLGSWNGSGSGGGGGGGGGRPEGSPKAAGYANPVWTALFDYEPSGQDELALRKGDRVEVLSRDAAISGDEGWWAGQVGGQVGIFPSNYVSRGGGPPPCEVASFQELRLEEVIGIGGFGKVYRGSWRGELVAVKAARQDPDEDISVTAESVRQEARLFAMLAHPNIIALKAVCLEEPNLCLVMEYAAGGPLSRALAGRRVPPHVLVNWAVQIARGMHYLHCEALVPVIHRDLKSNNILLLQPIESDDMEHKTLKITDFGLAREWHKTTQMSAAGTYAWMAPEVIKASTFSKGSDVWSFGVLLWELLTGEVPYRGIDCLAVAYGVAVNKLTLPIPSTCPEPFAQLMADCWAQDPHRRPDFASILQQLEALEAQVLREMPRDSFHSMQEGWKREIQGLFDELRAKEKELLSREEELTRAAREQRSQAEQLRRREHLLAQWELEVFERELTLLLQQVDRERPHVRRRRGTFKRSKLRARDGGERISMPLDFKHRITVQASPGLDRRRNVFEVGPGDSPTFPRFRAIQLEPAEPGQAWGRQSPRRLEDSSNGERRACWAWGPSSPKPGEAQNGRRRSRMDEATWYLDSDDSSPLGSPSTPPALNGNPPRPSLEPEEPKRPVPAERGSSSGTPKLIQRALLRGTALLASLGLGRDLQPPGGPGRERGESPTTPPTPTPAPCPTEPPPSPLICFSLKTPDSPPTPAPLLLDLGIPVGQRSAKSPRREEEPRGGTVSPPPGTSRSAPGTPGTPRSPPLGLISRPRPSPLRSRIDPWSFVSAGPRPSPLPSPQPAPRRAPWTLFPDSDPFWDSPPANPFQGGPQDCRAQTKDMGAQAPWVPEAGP
Chain of LRRK2 mutant (G2019S) (Q5S007 whole entry G2019S, looked up): as the sequence (Q5S007 whole entry, looked up) above, with G2019S counted along it

| Compound | inhibition at 10 µM [1, 14] | inhibition at 10 µM ([2]; 10 μM, 72 hours, CCK-8) | inhibition at 10 µM [6, 16] | IC50 ([8]; read-out: IC50(nM) MLK3) | inhibition at 10 µM [1, 18] | inhibition at 10 µM ([2]; 72 h) | inhibition at 10 µM ([6]; U-937, 72 h) | IC50 [10] | inhibition at 10 µM [9, 21] | inhibition at 10 µM [13, 22] | other results |
| --- | --- | --- | --- | --- | --- | --- | --- | --- | --- | --- | --- |
| Cc1cc(-c2nc3c(Nc4cccc(S(N)(=O)=O)c4)c(Br)cnc3[nH]2)c(C)n1-c1cccc(N2CCOCC2)c1 [Example 37, 3-((6-bromo-2-(2,5-dimethyl-1-(3-morpholinophenyl)-1H-pyrrol-3-yl)-3H-imidazo[4,5-b]pyridine-7-yl)amino)benzenesulfonamide] | 10 to 50% | 10 to 50% | 10 to 50% | 47 nM |  |  |  |  |  |  | inhibition at 10 µM ([3]; HT-29, 10 μM, 72 hours, CCK-8): > 50%; inhibition at 10 µM ([4]; K562, 10 μM, 72 hours, CCK-8): < 10%; inhibition at 10 µM [5, 15]: > 50%; inhibition at 10 µM [7, 17]: 10 to 50% |
| Cc1cc(-c2nc3c(Nc4cccc(S(N)(=O)=O)c4)c(Br)cnc3[nH]2)c(C)n1-c1c(Cl)cccc1Cl [Example 26, 3-((6-bromo-2-(1-(2,6-dichlorophenyl)-2,5-dimethyl-1H-pyrrol-3-yl)-3H-imidazo[4,5-b]pyridine-7-yl)amino)benzenesulfonamide] | 10 to 50% | 10 to 50% | 10 to 50% | 19 nM |  |  |  |  |  |  | inhibition at 10 µM ([3]; HT-29, 10 μM, 72 hours, CCK-8): 10 to 50%; inhibition at 10 µM ([4]; K562, 10 μM, 72 hours, CCK-8): < 10%; inhibition at 10 µM [5, 15]: 10 to 50%; inhibition at 10 µM [7, 17]: 10 to 50% |
| CCS(=O)(=O)N1CC[C@H](Nc2c(Br)cnc3[nH]c(-c4cc(C)n(-c5ccc(Cl)c(Cl)c5)c4C)nc23)C1 [Example 15, (S)-6-bromo-2-(1-(3,4-dichlorophenyl)-2,5-dimethyl-1H-pyrrol-3-yl)-N-(1-(ethylsulfonyl)pyrrolidine-3-yl)-3H-imidazo[4,5-b]pyridine-7-amine] |  |  |  | 34 nM | < 10% | 10 to 50% | 10 to 50% |  |  |  | inhibition at 10 µM ([3]; HT-29, 72 h): < 10%; inhibition at 10 µM ([4]; K562, 72 h): 10 to 50%; inhibition at 10 µM ([5]; MDA-MB-231, 72 h, read-out: Cancer cell proliferation inhibitory activity MDAMB231): > 50%; inhibition at 10 µM ([7]; U-937, 72 h): 10 to 50% |
| CCS(=O)(=O)N1CC[C@H](Nc2c(Br)cnc3[nH]c(-c4cc(C)n(-c5cc(Cl)ccc5Cl)c4C)nc23)C1 [Example 14, 6-bromo-2-(1-(2,5-dichlorophenyl)-2,5-dimethyl-1H-pyrrol-3-yl)-N—((S)-1-(ethylsulfonyl)pyrrolidine-3-yl)-3H-imidazo[4,5-b]pyridine-7-amine] | 10 to 50% | 10 to 50% | 10 to 50% |  |  |  |  |  |  |  | inhibition at 10 µM ([3]; HT-29, 10 μM, 72 hours, CCK-8): 10 to 50%; inhibition at 10 µM ([4]; K562, 10 μM, 72 hours, CCK-8): < 10%; inhibition at 10 µM [5, 15]: < 10%; inhibition at 10 µM [7, 17]: 10 to 50%; IC50 [8]: 17 nM |
| Cc1ccc(C(=O)N2CCOCC2)cc1-n1c(C)cc(-c2nc3ncc(Br)c(Nc4cccc(S(N)(=O)=O)c4)c3[nH]2)c1C [Example 94, 3-((6-bromo-2-(2,5-dimethyl-1-(2-methyl-5-(morpholine-4-carbonyl)phenyl)-1H-pyrrol-3-yl)-1H-imidazo[4,5-b]pyridine-7-yl)amino)benzenesulfonamide] | 10 to 50% | 10 to 50% | 10 to 50% | 73 nM |  |  |  | 52 nM |  |  | inhibition at 10 µM [9, 19]: > 50%; remaining binding at 0.1 µM [11]: 70%; remaining binding at 0.5 µM [11]: 40%; remaining binding at 0.1 µM [12]: 59%; remaining binding at 0.5 µM [12]: 16%; inhibition at 10 µM [13, 20]: < 10% |
| CCS(=O)(=O)N1CC[C@H](Nc2c(Br)cnc3[nH]c(-c4cc(C)n(-c5ccc(C(=O)N6CCOCC6)cc5C)c4C)nc23)C1 [Example 98, (4-(3-(6-bromo-7-(((S)-1-(ethylsulfonyl)pyrrolidine-3-yl)amino)-3H-imidazo[4,5-b]pyridine-2-yl)-2,5-dimethyl-1H-pyrrol-1-yl)-3-methylphenyl) (morpholino) methanone] | > 50% | > 50% | > 50% |  |  |  |  |  |  |  | inhibition at 10 µM [9, 19]: > 50%; remaining binding at 0.1 µM [11]: 18%; remaining binding at 0.5 µM [11]: 3.5%; remaining binding at 0.1 µM [12]: 8.2%; remaining binding at 0.5 µM [12]: 1%; inhibition at 10 µM [13, 20]: 10 to 50% |
| CCS(=O)(=O)N1CC[C@H](Nc2c(Cl)cnc3nc(-c4cc(C)n(-c5cccc(C(=O)N6CCOCC6)c5)c4C)[nH]c23)C1 [Example 54, (S)-(3-(3-(6-chloro-7-((1-(ethylsulfonyl)pyrrolidine-3-yl)amino)-1H-imidazo[4,5-b]pyridine-2-yl)-2,5-dimethyl-1H-pyrrol-1-yl)phenyl) (morpholino) methanone] |  |  |  |  |  |  |  |  |  |  | remaining binding at 0.1 µM [11]: 24%; remaining binding at 0.5 µM [11]: 4.1%; remaining binding at 0.1 µM [12]: 6.3%; remaining binding at 0.5 µM [12]: 0.4% |
| CCS(=O)(=O)N1CC[C@H](Nc2c(Br)cnc3nc(-c4cc(C)n(-c5cccc(NC(=O)CN6CCN(C)CC6)c5C)c4C)[nH]c23)C1 [Example 87, N-(3-(3-(6-bromo-7-(((S)-1-(ethylsulfonyl)pyrrolidine-3-yl)amino)-1H-imidazo[4,5-b]pyridine-2-yl)-2,5-dimethyl-1H-pyrrol-1-yl)-2-methylphenyl)-2-(4-methylpiperazine-1-yl) acetamide] |  |  |  | 13 nM | > 50% | > 50% | > 50% | 24 nM | > 50% | > 50% |  |
| CCS(=O)(=O)N1CC[C@H](Nc2c(Br)cnc3nc(-c4cc(C)n(-c5cccc(NC(=O)CN(C)C)c5)c4C)[nH]c23)C1 [Example 64, (S)—N-(3-(3-(6-bromo-7-((1-(ethylsulfonyl)pyrrolidine-3-yl)amino)-1H-imidazo[4,5-b]pyridine-2-yl)-2,5-dimethyl-1H-pyrrol-1-yl)phenyl)-2-(dimethylamino) acetamide] |  |  |  | 14 nM | > 50% | > 50% | > 50% | 34 nM | > 50% | > 50% |  |
| CCS(=O)(=O)N1CC[C@H](Nc2c(Br)cnc3nc(-c4cc(C)n(-c5cccc(NC(=O)CN6CCN(C)CC6)c5)c4C)[nH]c23)C1 [Example 65] |  |  |  | 26 nM | > 50% | > 50% | > 50% | 42 nM | > 50% | < 10% |  |
| CCS(=O)(=O)N1CC[C@H](Nc2c(Br)cnc3nc(-c4cc(C)n(-c5ccc(NC(=O)CN6CCN(C)CC6)cc5C)c4C)[nH]c23)C1 [Example 75, N-(4-(3-(6-bromo-7-(((S)-1-(ethylsulfonyl)pyrrolidine-3-yl)amino)-1H-imidazo[4,5-b]pyridine-2-yl)-2,5-dimethyl-1H-pyrrol-1-yl)-3-methylphenyl)-2-(4-methylpiperazine-1-yl) acetamide] |  |  |  | 16 nM | > 50% | > 50% | > 50% | 30 nM | > 50% | > 50% |  |
